According to ChEMBL document CHEMBL5380816, “Inclusion of Nitrofurantoin into the Realm of Cancer Chemotherapy via Biology-Oriented Synthesis and Drug Repurposing” (J Med Chem, 2023):
Activity calls are given as the source filed them. The rule behind the calls is not given here.

How the values were obtained:
MCF7 [1] = experiment: Anticancer activity against human MCF7 cells assessed as losing contact with neighbouring cells incubated at 0.11 uM for 72 hrs by phase contrast inverted microscopic analysis; format: functional, cell-based
HeLa [2] = experiment: Anticancer activity against human HeLa cells assessed as smaller cells incubated at 0.11 uM for 72 hrs by phase contrast inverted microscopic analysis; format: functional, cell-based
HeLa [3] = experiment: Anticancer activity against human HeLa cells assessed as round cells incubated at 0.11 uM for 72 hrs by phase contrast inverted microscopic analysis; format: functional, cell-based
HepG2 [4] = experiment: Anticancer activity against human HepG2 cells assessed as smaller cells incubated at 0.11 uM for 72 hrs by phase contrast inverted microscopic analysis; format: functional, cell-based
HepG2 [5] = experiment: Anticancer activity against human HepG2 cells assessed as losing contact with neighbouring cells incubated at 0.11 uM for 72 hrs by phase contrast inverted microscopic analysis; format: functional, cell-based
HepG2 [6] = experiment: Induction of apoptosis in human HepG2 cells assessed as early apoptotic cells incubated at 0.11 uM for 72 hrs by annexin V-FITC based propidium iodide dual staining assay (reference value: 1.74%); format: functional
Caco-2 [7] = experiment: Induction of apoptosis in human Caco-2 cells assessed as late apoptotic cells by measuring orange to red patch incubated at 0.11 uM for 72 hrs by acridine orange-ethidium bromide dual staining based fluorescence microscopic analysis; format: functional, cell-based
MCF7 [8] = experiment: Induction of apoptosis in human MCF7 cells assessed as late apoptotic cells by measuring orange to red patch incubated at 0.11 uM for 72 hrs by acridine orange-ethidium bromide dual staining based fluorescence microscopic analysis; format: functional, cell-based
dsDNA = experiment: Induction of damage in dsDNA (unknown origin) assessed as DNA disruption by measuring fluorescence intensity at 100 uM incubated for 2.5 hrs by EvaGreen based fluorescence plate reader analysis; format: nucleic-acid assay
MCF7 [9] = experiment: Induction of DNA damage in human MCF7 cells assessed as reduction of p53 ubiquitination at 5 uM incubated for 24 hrs by Western blot analysis; format: functional, cell-based
MCF7 [10] = experiment: Induction of apoptosis in human MCF7 cells assessed as early apoptotic cells incubated at 0.017 uM for 72 hrs by annexin V-FITC based propidium iodide dual staining assay (reference value: 0.06%); format: functional
MCF7 [11] = experiment: Induction of apoptosis in human MCF7 cells assessed as necrotic cells incubated at 0.017 uM for 72 hrs by annexin V-FITC based propidium iodide dual staining assay (reference value: 0.03%); format: functional
HeLa [12] = experiment: Induction of apoptosis in human HeLa cells assessed as late apoptotic cells incubated at 0.017 uM for 72 hrs by annexin V-FITC based propidium iodide dual staining assay (reference value: 0%); format: functional
HeLa [13] = experiment: Induction of apoptosis in human HeLa cells assessed as necrotic cells incubated at 0.017 uM for 72 hrs by annexin V-FITC based propidium iodide dual staining assay (reference value: 0%); format: functional
HepG2 [14] = experiment: Induction of apoptosis in human HepG2 cells assessed as viable cells incubated at 0.017 uM for 72 hrs by annexin V-FITC based propidium iodide dual staining assay (reference value: 97.27%); format: functional; details: read-out: Activity
HepG2 [15] = experiment: Induction of apoptosis in human HepG2 cells assessed as late apoptotic cells incubated at 0.017 uM for 72 hrs by annexin V-FITC based propidium iodide dual staining assay (reference value: 0.66%); format: functional
HepG2 [16] = experiment: Induction of apoptosis in human HepG2 cells assessed as necrotic cells incubated at 0.017 uM for 72 hrs by annexin V-FITC based propidium iodide dual staining assay (reference value: 0.33%); format: functional
HepG2 [17] = experiment: Anticancer activity against human HepG2 cells assessed as round cells incubated at 0.098uM for 72 hrs by phase contrast inverted microscopic analysis; format: functional, cell-based
HepG2 [18] = experiment: Anticancer activity against human HepG2 cells assessed as losing contact with neighbouring cells incubated at 0.098uM for 72 hrs by phase contrast inverted microscopic analysis; format: functional, cell-based
HepG2 [19] = experiment: Anticancer activity against human HepG2 cells assessed as absence of normal spindle shape incubated at 0.098uM for 72 hrs by phase contrast inverted microscopic analysis; format: functional, cell-based
Caco-2 [20] = experiment: Induction of apoptosis in human Caco-2 cells assessed as early apoptotic cells incubated at 0.098 uM for 72 hrs by annexin V-FITC based propidium iodide dual staining assay (reference value: 0.07%); format: functional
Caco-2 [21] = experiment: Induction of apoptosis in human Caco-2 cells assessed as necrotic cells incubated at 0.098 uM for 72 hrs by annexin V-FITC based propidium iodide dual staining assay (reference value: 0.02 %); format: functional
MCF7 [22] = experiment: Induction of apoptosis in human MCF7 cells assessed as late apoptotic cells incubated at 0.098 uM for 72 hrs by annexin V-FITC based propidium iodide dual staining assay (reference value: 0.01%); format: functional
HepG2 [23] = experiment: Induction of apoptosis in human HepG2 cells assessed as necrotic cells incubated at 0.098 uM for 72 hrs by annexin V-FITC based propidium iodide dual staining assay (reference value: 0.33%); format: functional
HeLa [24] = experiment: Induction of apoptosis in human HeLa cells assessed as late apoptotic cells by measuring orange to red patch incubated at 0.098 uM for 72 hrs by acridine orange-ethidium bromide dual staining based fluorescence microscopic analysis; format: functional, cell-based
Caco-2 [25] = experiment: Anticancer activity against human Caco-2 cells assessed as losing contact with neighbouring cells incubated at 0.097uM for 72 hrs by phase contrast inverted microscopic analysis; format: functional, cell-based
Caco-2 [26] = experiment: Anticancer activity against human Caco-2 cells assessed as cell shrinkage incubated at 0.097uM for 72 hrs by phase contrast inverted microscopic analysis; format: functional, cell-based
HeLa [27] = experiment: Anticancer activity against human HeLa cells assessed as smaller cells incubated at 0.097uM for 72 hrs by phase contrast inverted microscopic analysis; format: functional, cell-based
HepG2 [28] = experiment: Anticancer activity against human HepG2 cells assessed as cell shrinkage incubated at 0.097uM for 72 hrs by phase contrast inverted microscopic analysis; format: functional, cell-based
Caco-2 [29] = experiment: Induction of apoptosis in human Caco-2 cells assessed as late apoptotic cells incubated at 0.097 uM for 72 hrs by annexin V-FITC based propidium iodide dual staining assay (reference value: 0.02%); format: functional
MCF7 [30] = experiment: Induction of apoptosis in human MCF7 cells assessed as necrotic cells incubated at 0.097 uM for 72 hrs by annexin V-FITC based propidium iodide dual staining assay (reference value: 0.03%); format: functional
HeLa [31] = experiment: Induction of apoptosis in human HeLa cells assessed as viable cells incubated at 0.097 uM for 72 hrs by annexin V-FITC based propidium iodide dual staining assay (reference value: 97.23%); format: functional; details: read-out: Activity
HepG2 [32] = experiment: Induction of apoptosis in human HepG2 cells assessed as early apoptotic cells incubated at 0.097 uM for 72 hrs by annexin V-FITC based propidium iodide dual staining assay (reference value: 1.74%); format: functional
MCF7 [33] = experiment: Induction of apoptosis in human MCF7 cells assessed as early apoptotic cells by measuring bright green patch incubated at 0.097 uM for 72 hrs by acridine orange-ethidium bromide dual staining based fluorescence microscopic analysis; format: functional, cell-based
HeLa [34] = experiment: Induction of apoptosis in human HeLa cells assessed as early apoptotic cells by measuring bright green patch incubated at 0.097 uM for 72 hrs by acridine orange-ethidium bromide dual staining based fluorescence microscopic analysis; format: functional, cell-based
MCF7 [35] = experiment: Induction of apoptosis in human MCF7 cells assessed as late apoptotic cells by measuring orange to red patch incubated at 0.097 uM for 72 hrs by acridine orange-ethidium bromide dual staining based fluorescence microscopic analysis; format: functional, cell-based

With `C#CCN1C(=O)CN(/N=C/c2ccc([N+](=O)[O-])o2)C1=O` the Activity (MCF7 [1]) was “Active”, the Activity (HeLa [2]) was “Active” and the Activity (HeLa [3]) was “Active”. The Activity (HepG2 [4]) was “Active”, the Activity (HepG2 [5]) was “Active” and the Activity (HepG2 [6]) was 4.8%. For the same compound, the Activity (Caco-2 [7]) was “Active”, the Activity (MCF7 [8]) was “Active” and the Activity (dsDNA) was 27.2. For the same compound, the Activity (MCF7 [9]) was “Active”.

`O=c1[nH]cc(F)c(=O)[nH]1` [FLUOROURACIL] showed an Activity (MCF7 [10]) of 6.16%, an Activity (MCF7 [11]) of 0.68% and an Activity (HeLa [12]) of 3.4%. It also gave an Activity (HeLa [13]) of 0.89%, a viability at 0.017 µM (HepG2 [14]) of 88.4% and an Activity (HepG2 [15]) of 2.34%. For the same compound, the Activity (HepG2 [16]) was 1.56%.

For `O=C(CN1C(=O)CN(/N=C/c2ccc([N+](=O)[O-])o2)C1=O)c1ccc(Cl)cc1`, the Activity (HepG2 [17]) was “Active”, the Activity (HepG2 [18]) was “Active” and the Activity (HepG2 [19]) was “Active”. For the same compound, the Activity (Caco-2 [20]) was 8.53%, the Activity (Caco-2 [21]) was 3.37% and the Activity (MCF7 [22]) was 38.55%. For the same compound, the Activity (HepG2 [23]) was 3.85% and the Activity (HeLa [24]) was “Active”.

With `NS(=O)(=O)c1ccc(-n2cc(CN3C(=O)CN(/N=C/c4ccc([N+](=O)[O-])o4)C3=O)nn2)cc1` the Activity (Caco-2 [25]) was “Active”, the Activity (Caco-2 [26]) was “Active” and the Activity (HeLa [27]) was “Active”. For the same compound, the Activity (HepG2 [28]) was “Active”, the Activity (Caco-2 [29]) was 22.46% and the Activity (MCF7 [30]) was 0.6%. The viability at 0.097 µM (HeLa [31]) was 43.3%, the Activity (HepG2 [32]) was 21.02% and the Activity (MCF7 [33]) was “Active”. The Activity (HeLa [34]) was “Active” and the Activity (MCF7 [35]) was “Active”.
